# Laboratory results: patent publication US20230114728A1 (Venatorx Pharmaceuticals, Inc., priority 2019, published 2023)
# Assays:
# [1] = tested on: A. baumannii CDC-0045 producing TEM-1D, OXA-23, and OXA-69; assay: Broth microdilution MIC in iron-depleted CAMHB (IDM); format: cell-based; settings: Acinetobacter baumannii, read-out: Minimum Inhibitory Concentration, CDC-0045
# [2] = Bocillin-FL fluorescence polarization competition binding assay, A. baumannii PBP3; settings: fluorescence polarization competition binding assay using Bocillin-FL; column 3; read-out: 4. baumannii PBP1a Potency
# Outline: (§1)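 Fluorescence polarization (ex 490/em 520 nm) competition of inhibitors against Bocillin-FL at 0.1 μM, read up to 60 min. Final PBP levels: E. coli PBP3 1.5 μM; A. baumannii PBP2 2.5 μM, PBP3 0.2 μM in Tris pH 8.0/NaCl/glycerol/Tween 20; N. gonorrhoeae PBP2 […] in Hepes pH 8.0/NaCl/glycerol. EC50 = concentration halving PBP-bound Bocillin-FL.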
# N. gonorrhoeae PBP2 = biological target: T1, N. gonorrhoeae PBP2 (Neisseria gonorrhoeae, UniProt P08149); assay: Bocillin-FL fluorescence polarization competition binding assay, N. gonorrhoeae PBP2; settings: fluorescence polarization competition binding assay using Bocillin-FL; read-out: N. gonorrhoeae PBP2 Potency
# T1 construct: made in house
# Outline: as §1
# [3] = tested on: P. aeruginosa CDC-0090 producing KPC-5, OXA-50, and PAO; assay: Broth microdilution MIC in iron-depleted CAMHB (IDM); format: cell-based; settings: Pseudomonas aeruginosa, read-out: Minimum Inhibitory Concentration, P. aeruginosa CDC-0090
# Outline: (§2)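 CLSI broth microdilution in Chelex-treated cation-adjusted Mueller-Hinton broth, refortified with Ca, Mg and 10 μM ZnSO4, pH 7.3. Inoculum 2-8×10^5 CFU/mL; 37 °C for 16-20 h (Pseudomonas) or 20-24 h (Acinetobacter). MIC read visually as lowest concentration without growth.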
# [4] = tested on: P. aeruginosa CDC-0095 producing OXA-50, and PAO; assay: as above; format: cell-based; settings: Pseudomonas aeruginosa, read-out: Minimum Inhibitory Concentration, P. aeruginosa CDC-0095
# Outline: as §2
# P. aeruginosa CDC-0110 = assay: as above; format: cell-based; settings: Pseudomonas aeruginosa, CDC0110, read-out: Minimum Inhibitory Concentration, P. aeruginosa CDC-0110
# Outline: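 CLSI broth microdilution in iron-depleted cation-adjusted Mueller Hinton broth (Chelex-treated, Ca, Mg, Zn restored, pH 7.3), inoculum 2-8×10^5 CFU/mL, 2-fold compound dilutions. Pseudomonas plates incubated 16-20 h at 37 °C; MIC read visually as lowest concentration without growth.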
# T1 sequence (P08149 whole entry): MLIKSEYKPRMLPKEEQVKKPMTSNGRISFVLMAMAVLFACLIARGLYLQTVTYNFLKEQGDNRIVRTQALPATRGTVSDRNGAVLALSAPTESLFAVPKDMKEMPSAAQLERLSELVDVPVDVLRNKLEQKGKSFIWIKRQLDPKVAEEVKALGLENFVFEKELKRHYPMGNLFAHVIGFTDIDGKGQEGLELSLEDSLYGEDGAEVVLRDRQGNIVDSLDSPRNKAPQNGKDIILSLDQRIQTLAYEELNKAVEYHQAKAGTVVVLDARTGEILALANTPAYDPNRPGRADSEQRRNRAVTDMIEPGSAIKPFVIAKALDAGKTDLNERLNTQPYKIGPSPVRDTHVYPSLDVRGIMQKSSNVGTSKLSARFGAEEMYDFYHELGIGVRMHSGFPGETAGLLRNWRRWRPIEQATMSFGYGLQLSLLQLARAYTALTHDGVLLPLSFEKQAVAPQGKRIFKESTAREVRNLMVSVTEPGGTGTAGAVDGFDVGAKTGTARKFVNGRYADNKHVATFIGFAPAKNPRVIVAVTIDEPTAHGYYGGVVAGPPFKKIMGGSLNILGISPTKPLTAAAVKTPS
SMILES,MIC [1],EC50 [2],EC50 (N. gonorrhoeae PBP2),MIC [3],MIC [4],MIC (P. aeruginosa CDC-0110)
"CS(=O)(=O)N1CCN(C(=O)N[C@@H](C(=O)N[C@H]2Cc3ccc(F)c(C(=O)O)c3OB2O)c2cc(F)c(O)c(O)c2Cl)C1=O (single isomer, unassigned) [Example 189]",2 to 4 µg/mL,10 to 30 µM,10 to 30 µM,0.5 to 1 µg/mL,2 to 4 µg/mL,0.5 to 1 µg/mL
"Nc1nc(/C(=N/OC[C@H](NC(=O)c2ccc(O)c(O)c2Cl)C(=O)O)C(=O)N[C@H]2Cc3cccc(C(=O)O)c3OB2O)cs1 [Example 6, (R)-3-((Z)-2-(2-aminothiazol-4-yl)-2-(((S)-2-carboxy-2-(2-chloro-3,4-dihydroxybenzamido)ethoxy)imino)acetamido)-2-hydroxy-3,4-dihydro-2H-benzo[e][1,2]oxaborinine-8-carboxylic acid]",32 to 64 µg/mL,> 100 µM,,0.5 to 1 µg/mL,2 to 4 µg/mL,2 to 4 µg/mL
"CCN1CCN(C(=O)N[C@@H](C(=O)N[C@H]2Cc3ccc(F)c(C(=O)O)c3OB2O)c2ccc(O)c(O)c2)C(=O)C1=O [Example 211, (R)-3-((R)-2-(3,4-dihydroxyphenyl)-2-(4-ethyl-2,3-dioxopiperazine-1-carboxamido)acetamido)-7-fluoro-2-hydroxy-3,4-dihydro-2H-benzo[e][1,2]oxaborinine-8-carboxylic acid]",> 128 µg/mL,30 to 100 µM,,8 to 16 µg/mL,8 to 16 µg/mL,2 to 4 µg/mL
"CS(=O)(=O)N1CCN(C(=O)NC(C(=O)N[C@H]2Cc3ccc(F)c(C(=O)O)c3OB2O)c2c(Cl)cc(O)c(O)c2F)C1=O (stereo partly drawn) [Example 208, (3R)-3-(2-(6-chloro-2-fluoro-3,4-dihydroxyphenyl)-2-(3-(methylsulfonyl)-2-oxoimidazolidine-1-carboxamido)acetamido)-7-fluoro-2-hydroxy-3,4-dihydro-2H-benzo[e][1,2]oxaborinine-8-carboxylic acid]",> 128 µg/mL,30 to 100 µM,,2 to 4 µg/mL,32 to 64 µg/mL,8 to 16 µg/mL
"O=C(NCCN1CCN(C(=O)NC(C(=O)N[C@H]2Cc3ccc(F)c(C(=O)O)c3OB2O)c2ncc(O)cc2F)C(=O)C1=O)c1c(F)cc(O)c(O)c1Cl (stereo partly drawn) [Example 5, (3R)-3-(2-(4-(2-(2-chloro-6-fluoro-3,4-dihydroxybenzamido)ethyl)-2,3-dioxopiperazine-1-carboxamido)-2-(3-fluoro-5-hydroxypyridin-2-yl)acetamido)-7-fluoro-2-hydroxy-3,4-dihydro-2H-benzo[e][1,2]oxaborinine-8-carboxylic acid]",2 to 4 µg/mL,< 10 µM,,0.25 µg/mL,0.5 to 1 µg/mL,0.25 µg/mL
"C[C@H]1CN(CCNC(=O)c2ccc(O)c(O)c2Cl)C(=O)C(=O)N1C(=O)NC(C(=O)N[C@H]1Cc2cccc(C(=O)O)c2OB1O)c1ncc(O)cc1F (stereo partly drawn) [Example 2, (3R)-3-(2-((S)-4-(2-(2-chloro-3,4-dihydroxybenzamido)ethyl)-6-methyl-2,3-dioxopiperazine-1-carboxamido)-2-(3-fluoro-5-hydroxypyridin-2-yl)acetamido)-2-hydroxy-3,4-dihydro-2H-benzo[e][1,2]oxaborinine-8-carboxylic acid]",2 to 4 µg/mL,< 10 µM,,2 to 4 µg/mL,8 to 16 µg/mL,2 to 4 µg/mL
"CCN1CCN(C(=O)N[C@H](C(=O)N[C@H]2Cc3ccc(F)c(C(=O)O)c3OB2O)c2ccc(O)c(O)c2)C(=O)C1=O [Example 210, (R)-3-((S)-2-(3,4-dihydroxyphenyl)-2-(4-ethyl-2,3-dioxopiperazine-1-carboxamido)acetamido)-7-fluoro-2-hydroxy-3,4-dihydro-2H-benzo[e][1,2]oxaborinine-8-carboxylic acid]",> 128 µg/mL,> 100 µM,,> 128 µg/mL,> 128 µg/mL,> 128 µg/mL
